Reference: ChEMBL document CHEMBL1158717, “A cytotoxic carotenoid from the marine sponge Prianos osiros” (J Nat Prod, 2005)
≈ marks a conversion by molar mass, not a printed value.

System: HCT-116
Assay: Cytotoxicity against human HCT116 after 72 hrs by MTS assay
Format: functional, cell-based
Conditions: HCT-116, 72 h

CC1=C(C#C/C(=C/C=C/C(C)=C/C=C/C=C(C)/C=C/C=C(\C)C(=O)/C=C2\C(C)(C)C[C@H](O)C[C@@]2(C)O)CO)C(C)(C)C[C@H](O)C1
IC50: 4.38 µg/mL (≈ 7.12 µM)
